test system: Aβ42 production in H4 cells stably transfected with APP751 containing the Swedish mutation (H4 APP751 SWE clone 8.20); assay: Cellular assay for inhibition of Aβ1-42 production (H4 APP751 SWE clone 8.20); type: cell-based; settings: H4 APP751 SWE clone 8.20 cells, 19 h incubation; Table 5B, 6-heterocyclic thiazine examples
Method: Cellular Assays for Inhibition of Aβ1-40 and Aβ1-42 Production
H4 cells stably transfected with APP751 containing the Swedish mutation (H4 APP751 SWE clone 8.20, developed at BMS) were maintained in log phase through twice weekly passage at a 1:20 split. […] Following incubation for 19 h in 5% CO2 at 37° C., plates were briefly centrifuged (1000 rpm, 5 min). A 10 μl aliquot from each well was transferred to a second assay plate (Costar 3709) for Aβ40 measurements. Antibody cocktails were freshly prepared by dilution into 40 mM Tris-HCl (pH 7.4) with 0.2% BSA and added to assay plates. For Aβ42 measurements, antibodies specific for the Aβ42 neoepitope (565, developed at BMS; conjugated to the Wallac reagent (Perkin Elmer)) and the N-terminal sequence of Aβ peptide (26D6, developed at SIBIA; conjugated to APC (Perkin Elmer)) were mixed and 20 μl of the mixture was added to each well of the incubated cell plate yielding a final concentration of 0.8 ng/well 565 and 75 ng/well 26D6. For the Aβ40 measurements, antibodies specific for the Aβ40 neoepitope (TSD, developed at BMS; conjugated to the Wallac reagent (Perkin Elmer)) and 26D6 as described above were mixed and 20 μl of the mixture was added to the 10 μl aliquots which had been removed previously from the cell plate yielding a final concentration of 1.6 ng/well TSD and 17.5 ng/well 26D6. Assay plates containing antibodies were sealed with aluminum foil and incubated overnight at 4° C. Signal was determined using a Viewlux counter (Perkin Elmer) and IC50 values determined using curve fitting in CurveMaster (Excel Fit based).

SMILES | IC50 [µM]
Cc1noc(C)c1[C@@H]1C[C@@](C)(c2cc(-c3cnc(S(C)(=O)=O)nc3)c(F)cc2F)N=C(N)S1 [Example 52, (4S,6S)-4-(2,4-difluoro-5-(2-(methylsulfonyl)pyrimidin-5-yl)phenyl)-6-(3,5-dimethylisoxazol-4-yl)-4-methyl-5,6-dihydro-4H-1,3-thiazin-2-amine] | 0.82
Cc1noc(C)c1[C@@H]1C[C@@](C)(c2cc(-c3cncc(O)c3)c(F)cc2F)N=C(N)S1 [Example 53, 5-(5-((4S,6S)-2-amino-6-(3,5-dimethylisoxazol-4-yl)-4-methyl-5,6-dihydro-4H-1,3-thiazin-4-yl)-2,4-difluorophenyl)pyridin-3-ol] | 0.3
COc1ccc(-c2cc([C@]3(C)C[C@@H](c4c(C)noc4C)SC(N)=N3)c(F)cc2F)cn1 [Example 54, (4S,6S)-4-(2,4-difluoro-5-(6-methoxypyridin-3-yl)phenyl)-6-(3,5-dimethylisoxazol-4-yl)-4-methyl-5,6-dihydro-4H-1,3-thiazin-2-amine] | 0.32
Cc1noc(C)c1[C@@H]1C[C@@](C)(c2cc(-c3cccnc3C#N)c(F)cc2F)N=C(N)S1 [Example 55, 3-(5-((4S,6S)-2-amino-6-(3,5-dimethylisoxazol-4-yl)-4-methyl-5,6-dihydro-4H-1,3-thiazin-4-yl)-2,4-difluorophenyl)picolinonitrile] | 0.087
COc1ncccc1-c1cc([C@]2(C)C[C@@H](c3c(C)noc3C)SC(N)=N2)c(F)cc1F [Example 56, (4S,6S)-4-(2,4-difluoro-5-(2-methoxypyridin-3-yl)phenyl)-6-(3,5-dimethylisoxazol-4-yl)-4-methyl-5,6-dihydro-4H-1,3-thiazin-2-amine] | 0.67
COc1ncc(-c2cc([C@]3(C)C[C@@H](c4c(C)noc4C)SC(N)=N3)c(F)cc2F)cc1Cl [Example 57, (4S,6S)-4-(5-(5-chloro-6-methoxypyridin-3-yl)-2,4-difluorophenyl)-6-(3,5-dimethylisoxazol-4-yl)-4-methyl-5,6-dihydro-4H-1,3-thiazin-2-amine] | 0.38
COc1ncc(-c2cc([C@]3(C)C[C@@H](c4c(C)noc4C)SC(N)=N3)c(F)cc2F)cn1 [Example 58, (4S,6S)-4-(2,4-difluoro-5-(2-methoxypyrimidin-5-yl)phenyl)-6-(3,5-dimethylisoxazol-4-yl)-4-methyl-5,6-dihydro-4H-1,3-thiazin-2-amine] | 0.12
Cc1noc(C)c1[C@@H]1C[C@@](C)(c2cc(-c3cnccc3C(F)(F)F)c(F)cc2F)N=C(N)S1 [Example 59, (4S,6S)-4-(2,4-difluoro-5-(4-(trifluoromethyl)pyridin-3-yl)phenyl)-6-(3,5-dimethylisoxazol-4-yl)-4-methyl-5,6-dihydro-4H-1,3-thiazin-2-amine] | 0.67
Cn1nccc1[C@@H]1C[C@@](C)(c2ccc(F)cc2F)N=C(N)S1 [Example 60, (4S,6S)-4-(2,4-difluorophenyl)-4-methyl-6-(1-methyl-1H-pyrazol-5-yl)-5,6-dihydro-4H-1,3-thiazin-2-amine] | 0.33
Cc1nocc1[C@@H]1C[C@@](C)(c2ccc(F)cc2F)N=C(N)S1 [Example 61, (4S,6S)-4-(2,4-difluorophenyl)-4-methyl-6-(3-methylisoxazol-4-yl)-5,6-dihydro-4H-1,3-thiazin-2-amine] | 0.3
C[C@@]1(c2ccc(F)cc2F)C[C@@H](c2cncnc2)SC(N)=N1 [Example 62, (4S,6S)-4-(2,4-difluorophenyl)-4-methyl-6-(pyrimidin-5-yl)-5,6-dihydro-4H-1,3-thiazin-2-amine] | 0.31

Reference: US9475784B2, “4,6-diarylaminothiazines as BACE1 inhibitors and their use for the reduction of beta-amyloid production” (BRISTOL-MYERS SQUIBB COMPANY, priority 2012, dated 2016)
